This assay deals with T1, Dipeptidyl Peptidase-IV (DPP-IV) (Homo sapiens, UniProt P27487).
T1 construct: made in house
Kind of assay: Measurement of DPP-IV Activity-Inhibiting Ability (fluorescent substrate Ac-Gly-Pro-AFC). Format: biochemical. As to conditions: 25° C., 50 mmol HEPES (pH 7.4), DP-IV 7.1 nM, enzyme reaction for 1 hour. An excerpt:
Dipeptidyl Peptidase-IV (DPP-IV), known as serine protease, was obtained by a modification of the known method (Tanaka T. et al, Proc. Natl. Acad. Sci. USA, (1994) 91, 3082-3086), which comprises cloning, purification by use of Baculo-Virus and activation steps. DPP-IV was used to test the pharmaceutical efficacy of candidate inhibitors as follows. The cloned DP-IV was expressed in Baculo-Virus, which was purified by nickel column and then subjected to dialysis. The inhibitors synthesized in Examples were tested to determine the binding activity there of using a fluorescent substrate, Ac-Gly-Pro-AFC. Enzyme reactions were conducted for various concentrations of inhibitors, using 100 µM Ac-Gly-Pro-AFC at 25° C. in a buffer solution containing 50 mmol HEPES (pH 7.4), with the concentration of DP-IV being 7.1 nM. […] As the fluorescent spectrometer, Spectra MAX GeminiXS fluorescent spectrometer from Molecular Device Co. was used and the excitation frequency and emission frequency were set to 400 nm and 505 nm, respectively.

T1 sequence (P27487 whole entry): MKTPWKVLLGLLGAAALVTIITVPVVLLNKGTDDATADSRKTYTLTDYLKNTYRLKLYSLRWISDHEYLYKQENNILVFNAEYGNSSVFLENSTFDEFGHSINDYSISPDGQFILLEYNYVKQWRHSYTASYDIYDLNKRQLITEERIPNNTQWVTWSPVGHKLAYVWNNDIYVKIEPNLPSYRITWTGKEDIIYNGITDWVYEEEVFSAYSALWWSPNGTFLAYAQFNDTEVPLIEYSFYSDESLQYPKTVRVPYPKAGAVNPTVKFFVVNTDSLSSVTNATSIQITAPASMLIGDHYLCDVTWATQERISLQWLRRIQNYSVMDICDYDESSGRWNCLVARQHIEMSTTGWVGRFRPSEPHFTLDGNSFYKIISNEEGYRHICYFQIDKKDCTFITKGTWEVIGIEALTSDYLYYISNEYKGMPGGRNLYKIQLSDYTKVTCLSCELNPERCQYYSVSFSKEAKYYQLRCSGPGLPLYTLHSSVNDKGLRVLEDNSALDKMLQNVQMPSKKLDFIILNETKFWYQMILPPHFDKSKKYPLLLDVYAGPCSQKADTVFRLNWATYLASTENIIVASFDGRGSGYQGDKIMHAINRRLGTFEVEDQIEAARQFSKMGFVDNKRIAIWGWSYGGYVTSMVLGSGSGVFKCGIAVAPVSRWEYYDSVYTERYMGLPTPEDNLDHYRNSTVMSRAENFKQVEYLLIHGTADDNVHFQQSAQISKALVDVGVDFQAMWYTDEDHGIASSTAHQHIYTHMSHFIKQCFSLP

In the case of `C[C@H]1CN(C[C@@H](N)CC(=O)N2CCc3c(nc(-c4cccc(F)c4)nc3C(F)(F)F)C2)C(=O)CO1` [Ex. 33], the IC50 (usually the concentration that gives 50% inhibition) is 170 nM. In other words, the sub-micromolar range.
Molecule `C[C@@H]1CCC(=O)N(C[C@@H](N)CC(=O)N2CCc3c(nc(-c4ccc(F)cc4)nc3C(F)(F)F)C2)C1` [Ex. 34, (5R)-1-{(2S)-2-amino-4-[2-(4-fluorophenyl)-4-(trifluoromethyl)-5,8-dihydropyrido[3,4-d]pyrimidin-7(6H)-yl]-4-oxobutyl}-5-methylpiperidin-2-one] gave an IC50 of 34 nM.
In the case of `N[C@@H](CC(=O)N1CCc2c(nc(-c3ccc(F)c(F)c3)nc2C(F)(F)F)C1)CN1CC(F)(F)CCC1=O` [Ex. 35, 1-{(2S)-2-amino-4-[2-(3,4-difluorophenyl)-4-(trifluoromethyl)-5,8-dihydropyrido[3,4-d]pyrimidin-7(6H)-yl]-4-oxobutyl}-5,5-difluoropiperidin-2-one] it was 51 nM; in that of `C[C@H]1CN(C[C@@H](N)CC(=O)N2CCc3c(nc(-c4ccc(F)c(F)c4)nc3C(F)(F)F)C2)C(=O)CO1` [Ex. 36], 33 nM; in that of `C[C@@H]1CCC(=O)N(C[C@@H](N)CC(=O)N2CCc3c(nc(-c4ccc(F)c(F)c4)nc3C(F)(F)F)C2)C1` [Ex. 37, (5R)-1-{(2S)-2-amino-4-[2-(3,4-difluorophenyl)-4-(trifluoromethyl)-5,8-dihydropyrido[3,4-d]pyrimidin-7(6H)-yl]-4-oxobutyl}-5-methylpiperidin-2-one], 36 nM.
`C[C@@H]1CCC(=O)N(C[C@@H](N)CC(=O)N2CCc3c(nc(C4CCCC4)nc3C(F)(F)F)C2)C1` [Ex. 38, (5R)-1-{(2S)-2-amino-4-[2-cyclopentyl-4-(trifluoromethyl)-5,8-dihydropyrido[3,4-d]pyrimidin-7(6H)-yl]-4-oxobutyl}-5-methylpiperidin-2-one] returned a concentration for half-maximal inhibition (IC50) of 20 nM.
In the case of `C[C@H]1CN(C[C@@H](N)CC(=O)N2CCc3c(nc(C4CCCC4)nc3C(F)(F)F)C2)C(=O)CO1` [Ex. 39] it was 51 nM; in that of `N[C@@H](CC(=O)N1CCc2c(nc(C3CCCC3)nc2C(F)(F)F)C1)CN1CC(F)(F)CCC1=O` [Ex. 40, 1-{(2S)-2-amino-4-[2-cyclopentyl-4-(trifluoromethyl)-5,8-dihydropyrido[3,4-d]pyrimidin-7(6H)-yl]-4-oxobutyl}-5,5-difluoropiperidin-2-one], 30 nM.
`C[C@@H]1CCC(=O)N(C[C@@H](N)CC(=O)N2CCc3sc(-c4ccc(C(F)(F)F)cc4)nc3C2)C1` [Ex. 41, (5R)-1-[(2S)-2-amino-4-oxo-4-{2-[4-(trifluoromethyl)phenyl]-6,7-dihydro[1,3]thiazolo[4,5,c]pyridin-5(4H)-yl}butyl]-5-methylpiperidin-2-one] yielded a half-inhibitory concentration (IC50) of 14 nM.
Molecule `C[C@H]1CN(C[C@@H](N)CC(=O)N2CCc3sc(-c4ccc(C(F)(F)F)cc4)nc3C2)C(=O)CO1` [Ex. 42, (6S)-4-[(2S)-2-amino-4-oxo-4-{2-[4-(trifluoromethyl)phenyl]-6,7-dihydro[1,3]thiazolo[4,5,c]pyridin-5(4H)-yl}butyl]-6-methylmorpholine-3-one] had an IC50 of 14 nM.
As for `N[C@@H](CC(=O)N1CCc2sc(-c3ccc(C(F)(F)F)cc3)nc2C1)CN1CC(F)(F)CCC1=O` [Ex. 43, 1-[(2S)-2-amino-4-oxo-4-{2-[4-(trifluoromethyl)phenyl]-6,7-dihydro[1,3]thiazolo[4,5,c]pyridin-5(4H)-yl}butyl]-5,5-difluoropiperidin-2-one], the concentration for half-maximal inhibition (IC50) is 9 nM.
In the case of `C[C@@H]1CCC(=O)N(C[C@@H](N)CC(=O)N2CCc3sc(-c4ccc(F)cc4)nc3C2)C1` [Ex. 44, (5R)-1-{(2S)-2-amino-4-[2-(4-fluorophenyl)-6,7-dihydro[1,3]thiazolo[4,5,c]pyridin-5(4H)-yl]-4-oxobutyl}-5-methylpiperidin-2-one] it was 13 nM; in that of `C[C@H]1CN(C[C@@H](N)CC(=O)N2CCc3sc(-c4ccc(F)cc4)nc3C2)C(=O)CO1` [Ex. 45, (6S)-4-{(2S)-2-amino-4-oxo-4-[2-(4-fluorophenyl)6,7-dihydro[1,3]thiazolo[4,5,c]pyridin-5(4H)-yl]butyl}-6-methylmorpholine-3-one], 22 nM; in that of `N[C@@H](CC(=O)N1CCc2sc(-c3ccc(F)cc3)nc2C1)CN1CC(F)(F)CCC1=O` [Ex. 46, 1-{(2S)-2-amino-4-[2-(4-fluorophenyl)-6,7-dihydro[1,3]thiazolo[4,5,c]pyridin-5(4H)-yl]-4-oxobutyl}-5,5-difluoropiperidin-2-one], 22 nM.
For `C[C@@H]1CCC(=O)N(C[C@@H](N)CC(=O)N2CCc3sc(C4CCOCC4)nc3C2)C1` [Ex. 47, (5R)-1-{(2S)-2-amino-4-oxo-4-[2-(tetrahydro-2H-pyran-4-yl)-6,7-dihydro[1,3]thiazolo[4,5,c]pyridin-5(4H)-yl]butyl}-5-methylpiperidin-2-one] the value was 279 nM; for `C[C@H]1CN(C[C@@H](N)CC(=O)N2CCc3sc(C4CCOCC4)nc3C2)C(=O)CO1` [Ex. 48, (6S)-4-{(2R)-2-amino-4-oxo-4-[2-(tetrahydro-2H-pyran-4-yl)-6,7-dihydro[1,3]thiazolo[4,5,c]pyridin-5(4H)-yl]butyl}-6-methylmorpholine-3-one], 357 nM; for `N[C@@H](CC(=O)N1CCc2sc(C3CCOCC3)nc2C1)CN1CC(F)(F)CCC1=O` [Ex. 49, 1-{(2S)-2-amino-4-oxo-4-[2-(tetrahydro-2H-pyran-4-yl)-6,7-dihydro[1,3]thiazolo[4,5, c]pyridin-5(4H)-yl]butyl}-5,5-difluoropiperidin-2-one], 236 nM.
In the case of `C[C@H]1CN(C[C@@H](N)CC(=O)N2CCc3sc(C(F)(F)F)nc3C2)C(=O)CO1` [Ex. 50, (6S)-4-{(2S)-2-amino-4-oxo-4-[2-(trifluoromethyl)-6,7-dihydro[1,3]thiazolo[4,5,c]pyridin-5(4H)-yl]butyl}-6-methylmorpholine-3-one] it was 422 nM.
`N[C@@H](CC(=O)N1CCc2sc(C(F)(F)F)nc2C1)CN1CC(F)(F)CCC1=O` [Ex. 51, 1-{(2S)-2-amino-4-oxo-4-[2-(trifluoromethyl)-6,7-dihydro[1,3]thiazolo[4,5,c]pyridin-5(4H)-yl]butyl}-5,5-difluoropiperidin-2-one] returned a half-inhibitory concentration (IC50) of 114 nM. This IC50 lies about 3.7-fold lower than the previous one.
For `COCCc1nc2c(c(C(F)(F)F)n1)CCN(C(=O)C[C@H](N)CN1C[C@H](C)CCC1=O)C2` [Ex. 52, (5R)-1-{(2S)-2-amino-4-[2-(2-methoxyethyl)-4-(trifluoromethyl)-5,8-dihydropyrido[3,4-d]pyrimidin-7(6H)-yl]-4-oxobutyl}-5-methylpiperidin-2-one] the value was 18 nM; for `COCCc1nc2c(c(C(F)(F)F)n1)CCN(C(=O)C[C@H](N)CN1CC(F)(F)CCC1=O)C2` [Ex. 53, 1-{(2S)-2-amino-4-[2-(2-methoxyethyl)-4-(trifluoromethyl)-5,8-dihydropyrido[3,4-d]pyrimidin-7(6H)-yl]-4-oxobutyl}-5,5-difluoropiperidin-2-one], 26 nM.
For `C[C@@H]1CCC(=O)N(C[C@@H](N)CC(=O)N2CCc3c(nc(CC4CC4)nc3C(F)(F)F)C2)C1` [Ex. 54, (5R)-1-{(2S)-2-amino-4-[2-(cyclopropylmethyl)-4-(trifluoromethyl)-5,8-dihydropyrido[3,4-d]pyrimidin-7(6H)-yl]-4-oxobutyl}-5-methylpiperidin-2-one] the value was 30 nM; for `N[C@@H](CC(=O)N1CCc2c(nc(CC3CC3)nc2C(F)(F)F)C1)CN1CC(F)(F)CCC1=O` [Ex. 55, 1-{(2S)-2-amino-4-[2-(cyclopropylmethyl)-4-(trifluoromethyl)-5,8-dihydropyrido[3,4-d]pyrimidin-7(6H)-yl]-4-oxobutyl}-5,5-difluoropiperidin-2-one], 20 nM; for `C[C@@H]1CCC(=O)N(C[C@@H](N)CC(=O)N2CCc3c(nc(-c4ccncc4)nc3C(F)(F)F)C2)C1` [Ex. 56, (5R)-1-{(2S)-2-amino-4-oxo-4-[2-pyridin-4-yl-4-(trifluoromethyl)-5,8-dihydropyrido[3,4-d]pyrimidin-7(6H)-yl]butyl}-5-methylpiperidin-2-one], 11 nM.
For the molecule `N[C@@H](CC(=O)N1CCc2c(nc(-c3ccncc3)nc2C(F)(F)F)C1)CN1CC(F)(F)CCC1=O` [Ex. 57, 1-{(2S)-2-amino-4-oxo-4-[2-pyridin-4-yl-4-(trifluoromethyl)-5,8-dihydropyrido[3,4-d]pyrimidin-7(6H)-yl]butyl}-5,5-difluoropiperidin-2-one], the half-maximal inhibitory concentration (IC50) is 48 nM.
In the case of `C[C@@H]1CCC(=O)N(C[C@@H](N)CC(=O)N2CCc3c(nc(Cc4ccc(F)cc4)nc3C(F)(F)F)C2)C1` [Ex. 58, (5R)-1-{(2S)-2-amino-4-[2-(4-fluorobenzyl)-4-(trifluoromethyl)-5,8-dihydropyrido[3,4-d]pyrimidin-7(6H)-yl]-4-oxobutyl}-5-methylpiperidin-2-one] it was 14 nM; in that of `N[C@@H](CC(=O)N1CCc2c(nc(Cc3ccc(F)cc3)nc2C(F)(F)F)C1)CN1CC(F)(F)CCC1=O` [Ex. 59, 1-{(2S)-2-amino-4-[2-(4-fluorobenzyl)-4-(trifluoromethyl)-5,8-dihydropyrido[3,4-d]pyrimidin-7(6H)-yl]-4-oxobutyl}-5,5-difluoropiperidin-2-one], 36 nM.
In the case of `C[C@@H]1CCC(=O)N(C[C@@H](N)CC(=O)N2CCc3c(nc(-c4ccsc4)nc3C(F)(F)F)C2)C1` [Ex. 60, (5R)-1-{(2S)-2-amino-4-oxo-4-[2-(3-thienyl)-4-(trifluoromethyl)-5,8-dihydropyrido[3,4-d]pyrimidin-7(6H)-yl]butyl}-5-methylpiperidin-2-one] it was 61 nM.

These data come from patent publication US7879848B2, “Dipeptidyl Peptidase-IV inhibiting compounds, method of preparing the same, and pharmaceutical compositions containing the same as an active agent” (LG Life Sciences, Ltd., priority 2005, dated 2011).
